Measurements taken from US4257941A, “Polycyclic nitrogen-containing compounds” (BASF Aktiengesellschaft, priority 1976, dated 1981).
Like-named read-outs stand apart in the source and are kept apart here.

Experiments:
Type in all cases: in vivo
Festuca rubra = experiment: Growth height of individual grasses (Example 15); conditions: for Growth height: 3 weeks after treatment; for growth height relative: control 100
Procedure: (§1) Under the same conditions as in Example 13 the two grasses Festuca rubra and Poa praetensis (both components of the lawn mixture used in Example 13) were grown in a neutral sandy loam. The growth height was measured 3 weeks after treatment with the active ingredients.

Poa praetensis = experiment: Growth height of individual grasses (Example 15); set-up: key to plant color: ^+: plants a darker green; conditions: for Growth height: 3 weeks after treatment; for growth height relative: control 100
Procedure: as §1

Alopecurus myosuroides = experiment: Herbicidal action (Example 25); conditions: for pest or weed control at 2000 g/ha / pest or weed control at 4000 g/ha / pest or weed control at 8000 g/ha / pest or weed control at 1000 g/ha: Alopecurus myosuroides, read-out: percentage damage; for pest or weed control at 2000 g/ha: 2.0 kg/ha; for pest or weed control at 8000 g/ha: 8.0 kg/ha; for pest or weed control at 1000 g/ha: 1.0 kg/ha
Procedure: (§2) Paraffined paper cups having a volume of 170 cm^3 were filled with a sandy loam, and the seeds of the test plants sown therein, separated by species. (The species are also listed below.)
(§3) In the first group, treatment was effected immediately after sowing and before germination of the seeds (preemergence treatment=soil treatment). Shallow sown seeds not completely covered with soil came into contact with the active ingredients. In the second group, the plants were treated postemergence (=leaf treatment) at a growth height of from 2 to 8 cm, depending on the rate of growth and shape of the species concerned. The compounds were suspended or emulsified in water and applied with the aid of fine nozzles. The soil and plants were thoroughly sprinkler irrigated for the duration of the experiment. The cups were placed in the greenhouse and kept in the temperature range 12°-25° C. or 18°-35° C., depending on the temperature requirements of the various species. After 2 to 6 weeks the action was assessed visually on a 0 to 100 scale, 0 denoting no damage and 100 denoting plants not germinated or completely destroyed.

Datura stramonium = experiment: Herbicidal action (Example 25); conditions: postemergence
Procedure: as §2, §3

Digitaria sanguinalis = experiment: Herbicidal action (Example 25); conditions: postemergence
Procedure: as §2, §3

Eleusine indica = experiment: Herbicidal action (Example 25); conditions: postemergence
Procedure: as §2, §3

tomatoes = experiment: Action on tomatoes (Example 22); conditions: leaf; for Plant height: 14 days; for Plant height relative: control 100
Procedure: Tomatoes were grown in the greenhouse in glass dishes 11.5 cm in diameter containing a peat substrate which was provided with an adequate supply of nutrients. The active ingredients were sprayed onto the leaves in conventional manner at a plant height of 9 to 12 cm.

Echinochloa crus galli = experiment: Herbicidal action (Example 25)
Procedure: as §2, §3

Galium aparine = experiment: Herbicidal action (Example 25); conditions: post-emergence, postemergence, 4.0 kg/ha, read-out: percentage damage
Procedure: as §2, §3

Sinapis alba = experiment: Herbicidal action (Example 25); conditions: read-out: percentage damage; for pest or weed control at 1000 g/ha: 1.0 kg/ha; for pest or weed control at 2000 g/ha: 2.0 kg/ha
Procedure: as §2, §3

[1] = post-emergence, postemergence, 4.0 kg/ha
[2] = pre-emergence, preemergence, 4.0 kg/ha

| Compound | pest or weed control at 2000 g/ha (Alopecurus myosuroides; post-emergence, postemergence) | pest or weed control at 4000 g/ha (Alopecurus myosuroides; [1]) | pest or weed control at 8000 g/ha (Alopecurus myosuroides; post-emergence, postemergence) | pest or weed control at 2000 g/ha (Alopecurus myosuroides; pre-emergence, preemergence) | pest or weed control at 4000 g/ha (Alopecurus myosuroides; [2]) | pest or weed control at 8000 g/ha (Alopecurus myosuroides; pre-emergence, preemergence) | percentage damage (Datura stramonium; 2.0 kg/ha) | percentage damage (Datura stramonium; 4.0 kg/ha) | percentage damage (Datura stramonium; 8.0 kg/ha) | percentage damage (Digitaria sanguinalis; 2.0 kg/ha) | percentage damage (Digitaria sanguinalis; 4.0 kg/ha) | percentage damage (Digitaria sanguinalis; 8.0 kg/ha) | percentage damage (Eleusine indica; 2.0 kg/ha) | percentage damage (Eleusine indica; 4.0 kg/ha) | percentage damage (Eleusine indica; 8.0 kg/ha) | other results |
| --- | --- | --- | --- | --- | --- | --- | --- | --- | --- | --- | --- | --- | --- | --- | --- | --- |
| Brc1ccc(N2N=NC3C4CC(C5N=NC45)C32)cc1 (stereo not drawn) [drawing 386] |  |  |  |  |  |  |  |  |  |  |  |  |  |  |  | Growth height (Festuca rubra; 0.5 kg/ha): 29.5 cm; growth height relative (Festuca rubra; 0.5 kg/ha): 107.3; Growth height (Festuca rubra; 1.0 kg/ha): 27.5 cm; growth height relative (Festuca rubra; 1.0 kg/ha): 100.0; Growth height (Festuca rubra; 2.0 kg/ha): 25.5 cm; growth height relative (Festuca rubra; 2.0 kg/ha): 92.7; Growth height (Poa praetensis; 0.5 kg/ha): 19.0 cm; growth height relative (Poa praetensis; 0.5 kg/ha): 84.4; plant color (Poa praetensis; 1.0 kg/ha): ^+; Growth height (Poa praetensis; 1.0 kg/ha): 17.5 cm; growth height relative (Poa praetensis; 1.0 kg/ha): 77.8; plant color (Poa praetensis; 2.0 kg/ha): ^+; Growth height (Poa praetensis; 2.0 kg/ha): 14.0 cm; growth height relative (Poa praetensis; 2.0 kg/ha): 62.2 |
| CN(C)C(=O)Nc1ccc(Oc2ccccc2)cc1 [drawing 424] | 15% | 22% | 38% | 30% | 25% | 25% | 95 percentage damage | 95 percentage damage | 100 percentage damage | 50 percentage damage | 70 percentage damage | 90 percentage damage | 40 percentage damage | 50 percentage damage | 50 percentage damage |  |
| C=CCN(CC=C)C(=O)CCl [drawing 425] | 28% | 38% | 35% | 68% | 85% | 98% | 10 percentage damage | 20 percentage damage | 60 percentage damage |  |  |  |  |  |  |  |
| Brc1ccc(N2N=NC3C4CC(C5N=NC45)C32)cc1 (stereo not drawn) [drawing 403] |  |  |  |  |  |  |  |  |  |  |  |  |  |  |  | Plant height (tomatoes; 1.5 kg/ha): 25.0 cm; Plant height relative (tomatoes; 1.5 kg/ha): 91.9; Plant height (tomatoes; 3.0 kg/ha): 22.7 cm; Plant height relative (tomatoes; 3.0 kg/ha): 83.5; Plant height (tomatoes; 6.0 kg/ha): 15.3 cm; Plant height relative (tomatoes; 6.0 kg/ha): 56.2 |
| c1ccc(N2N=NC3C4CC(C5N=NC45)C32)cc1 (stereo not drawn) [drawing 429] | 15% | 38% | 45% | 70% |  | 90% | 60 percentage damage | 95 percentage damage | 100 percentage damage | 60 percentage damage | 70 percentage damage | 80 percentage damage | 90 percentage damage | 90 percentage damage | 90 percentage damage | percentage damage (Alopecurus myosuroides; preemergence, 4.0 kg/ha): 75 percentage damage |
| CC(C)OC(=O)Nc1cccc(Cl)c1 [drawing 423] | 25% | 25% | 30% | 95% | 95% | 98% | 30 percentage damage | 40 percentage damage | 60 percentage damage | 80 percentage damage | 80 percentage damage | 90 percentage damage | 50 percentage damage | 50 percentage damage | 50 percentage damage |  |
| CCc1cccc(CC)c1N(COC)C(=O)CCl | 50% |  |  | 78% |  |  |  |  |  |  |  |  |  |  |  | pest or weed control at 1000 g/ha (Alopecurus myosuroides; post-emergence, postemergence): 40%; pest or weed control at 1000 g/ha (Alopecurus myosuroides; pre-emergence, preemergence): 20%; percentage damage (Echinochloa crus galli; postemergence, 1.0 kg/ha): 98 percentage damage; percentage damage (Echinochloa crus galli; postemergence, 2.0 kg/ha): 98 percentage damage; percentage damage (Echinochloa crus galli; preemergence, 1.0 kg/ha): 100 percentage damage; percentage damage (Echinochloa crus galli; preemergence, 2.0 kg/ha): 100 percentage damage; pest or weed control at 4000 g/ha (Galium aparine): 0%; pest or weed control at 1000 g/ha (Sinapis alba; post-emergence, postemergence): 0%; pest or weed control at 2000 g/ha (Sinapis alba; post-emergence, postemergence): 0%; pest or weed control at 1000 g/ha (Sinapis alba; pre-emergence, preemergence): 0%; pest or weed control at 2000 g/ha (Sinapis alba; pre-emergence, preemergence): 0% |
